Reference: patent publication US10392422B2, “Macrocyclic broad spectrum antibiotics” (priority 2014, dated 2019)
Values after ≈ are worked out from the molar mass of the structure shown. Where two headings read alike, the source gives them in different places.

Tests used:
Test in all cases: MIC, broth micro-dilution technique (CLSI)
MRSA COL (NRS100) = assay type: cell-based, Staphylococcus aureus; details: for MIC: Staphylococcus aureus, 22 h, read-out: MIC (μg/mL) (COL)
Outline: (§1)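 Cation-adjusted MHB + 0.002% Tween-80; 10-point 2-fold series starting 64 μg/ml (modified protocol: 4 μg/mL). Final inoculum OD600 0.0005; 35° C, 22 h. MIC per CLSI M07-A8 broth microdilution.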

[1] = system: Escherichia coli MC4100 harboring the IMP4213; assay type: cell-based; details: 35° C., 22 hours; for MIC: Escherichia coli, 22 h
Outline: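 Susceptibility is tested by broth micro-dilution per CLSI, using ten serial 2-fold dilutions beginning at 64 μg/ml or, in a modified version, 4 μg/mL. The E. coli MC4100 strain carries an imp allele raising outer-membrane permeability.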

[2] = system: Methicillin Resistant Staphylococcus aureus strain USA 300 (NRS384); assay type: cell-based; details: for MIC: Staphylococcus aureus, 22 h, read-out: MIC (μg/mL) S. aureus
Outline: as §1

[3] = read-out: MIC (μg/mL) E. coli, Table 2 modified protocol: serial 2-fold dilutions starting from 4 μg/mL
[4] = read-out: MIC (μg/mL) E. coli, Table 1 protocol: serial 2-fold dilutions starting from 64 μg/ml
[5] = Table 1 protocol: serial 2-fold dilutions starting from 64 μg/ml, 35° C., 22 hours
[6] = Table 2 modified protocol: serial 2-fold dilutions starting from 4 μg/mL, 35° C., 22 hours

Compound	MIC (MRSA COL (NRS100))	MIC [1, 3]	MIC [2]	MIC [1, 4]	other results
CCCCCCCCc1ccc(C(=O)N[C@@H](CCN)C(=O)N(C)[C@@H]2C(=O)N[C@@H](C)C(=O)N[C@H](C(=O)O)Cc3ccc(OCCN)c(c3)-c3cc2ccc3OCCN)c(C)c1 [Compound 302]	0.039 µg/mL (≈ 0.047 µM)	0.0088 µg/mL (≈ 0.0106 µM)	0.11 µg/mL (≈ 0.133 µM)	–	–
CCCCCCCCCCCCCC(=O)N[C@@H](CCCN)C(=O)N(C)[C@@H]1C(=O)N[C@@H](C)C(=O)N[C@H](C(=O)O)Cc2ccc(OCCN)c(c2)-c2cc1ccc2OCCN [Compound 303]	0.023 µg/mL (≈ 0.0279 µM)	0.023 µg/mL (≈ 0.0279 µM)	0.13 µg/mL (≈ 0.158 µM)	–	–
CCCCCCCCCCCC(=O)N[C@@H](CCN)C(=O)N(C)[C@@H]1C(=O)N[C@@H](C)C(=O)N[C@H](C(=O)O)Cc2ccc(OCCN)c(c2)-c2cc1ccc2OCCN [Compound 304]	0.13 µg/mL (≈ 0.166 µM)	0.047 µg/mL (≈ 0.0601 µM)	0.5 µg/mL (≈ 0.639 µM)	–	–
CCCCCCCCCCC(=O)N[C@@H](CCN)C(=O)N(C)[C@@H]1C(=O)N[C@@H](C)C(=O)N[C@H](C(=O)O)Cc2ccc(OCCN)c(c2)-c2cc1ccc2OCCN [Compound 305]	0.38 µg/mL (≈ 0.495 µM)	0.13 µg/mL (≈ 0.169 µM)	1 µg/mL (≈ 1.3 µM)	–	–
CCCCCCCCCC(=O)N[C@@H](CCN)C(=O)N(C)[C@@H]1C(=O)N[C@@H](C)C(=O)N[C@H](C(=O)O)Cc2ccc(OCCN)c(c2)-c2cc1ccc2OCCN [Compound 306]	1 µg/mL (≈ 1.33 µM)	0.25 µg/mL (≈ 0.332 µM)	3 µg/mL (≈ 3.98 µM)	–	–
CCCCCCCCC(=O)N[C@@H](CCN)C(=O)N(C)[C@@H]1C(=O)N[C@@H](C)C(=O)N[C@H](C(=O)O)Cc2ccc(OCCN)c(c2)-c2cc1ccc2OCCN [Compound 307]	3 µg/mL (≈ 4.05 µM)	1 µg/mL (≈ 1.35 µM)	4 µg/mL (≈ 5.41 µM)	–	–
CCCCCCCCCCCCCC(=O)N[C@@H](CC)C(=O)N(C)[C@@H]1C(=O)N[C@@H](C)C(=O)N[C@H](C(=O)O)Cc2ccc(OCCN)c(c2)-c2cc1ccc2OCCN [Compound 308]	0.38 µg/mL (≈ 0.478 µM)	0.094 µg/mL (≈ 0.118 µM)	1 µg/mL (≈ 1.26 µM)	–	–
CCCCCCCCc1ccc(C(=O)N[C@@H](CO)C(=O)N(C)[C@@H]2C(=O)N[C@@H](C)C(=O)N[C@H](C(=O)O)Cc3ccc(OCCN)c(c3)-c3cc2ccc3OCCN)c(C)c1 [Compound 309]	0.25 µg/mL (≈ 0.306 µM)	0.031 µg/mL (≈ 0.0379 µM)	0.5 µg/mL (≈ 0.612 µM)	–	–
C[C@H](NC(=O)[C@@H]1Cc2ccc(OCCN)c(c2)-c2cc(ccc2OCCN)[C@H](N(C)C(=O)[C@H](CCCCN)NC(=O)c2ccc(-c3ccc(Cl)cc3)cc2)C(=O)N[C@@H](C)C(=O)N1)B1O[C@@H]2C[C@@H]3C[C@@H](C3(C)C)[C@]2(C)O1 [Compound 310]	0.094 µg/mL (≈ 0.0897 µM)	–	0.5 µg/mL (≈ 0.477 µM)	0.19 µg/mL (≈ 0.181 µM)	–
C[C@@H]1NC(=O)[C@@H](N(C)C(=O)[C@H](CCCCN)NC(=O)c2ccc(-c3ccc(Cl)cc3)cc2)c2ccc(OCCN)c(c2)-c2cc(ccc2OCCN)C[C@@H](C(=O)NCB(O)O)NC1=O [Compound 311]	0.13 µg/mL (≈ 0.145 µM)	–	1.5 µg/mL (≈ 1.67 µM)	0.19 µg/mL (≈ 0.211 µM)	–
C[C@@H]1NC(=O)[C@@H](N(C)C(=O)[C@H](CCCCN)NC(=O)c2ccc(-c3ccc(Cl)cc3)cc2)c2ccc(OCCN)c(c2)-c2cc(ccc2O)C[C@@H](C(=O)O)NC1=O [Compound 312]	3 µg/mL (≈ 3.75 µM)	–	24 µg/mL (≈ 30 µM)	3 µg/mL (≈ 3.75 µM)	–
C[C@H](NC(=O)[C@@H]1Cc2ccc(O)c(c2)-c2cc(ccc2OCCN)[C@H](N(C)C(=O)[C@H](CCCCN)NC(=O)c2ccc(-c3ccc(Cl)cc3)cc2)C(=O)N[C@@H](C)C(=O)N1)B1O[C@@H]2C[C@@H]3C[C@@H](C3(C)C)[C@]2(C)O1 [Compound 313]	0.38 µg/mL (≈ 0.378 µM)	–	2 µg/mL (≈ 1.99 µM)	1 µg/mL (≈ 0.996 µM)	–
CCCCCCCCCCCCCC(=O)NC(CCCCN)C(=O)N(C)C1C(=O)NC(C)C(=O)NC(C(=O)NC(C)B2OC3CC4CC(C4(C)C)C3(C)O2)Cc2ccc(OCCN)c(c2)-c2cc1ccc2OCCN (stereo not drawn) [Compound 314]	–	–	–	–	MIC (μg/mL) (COL) (MRSA COL (NRS100); [5]): 0.012 µg/mL (≈ 0.0115 µM); MIC (μg/mL) E. coli ([1]; Table 1 protocol: serial 2-fold dilutions starting from 64 μg/ml): 0.094 µg/mL (≈ 0.0901 µM); MIC (μg/mL) S. aureus [2, 5]: 0.063 µg/mL (≈ 0.0604 µM)
CCCCCCCCCCCCCC(=O)N(C)[C@@H]1C(=O)N[C@@H](C)C(=O)N[C@H](C(=O)N[C@@H](C)B2O[C@@H]3C[C@@H]4C[C@@H](C4(C)C)[C@]3(C)O2)Cc2ccc(OCCN)c(c2)-c2cc1ccc2OCCN [Compound 315]	0.5 µg/mL (≈ 0.546 µM)	–	1 µg/mL (≈ 1.09 µM)	1 µg/mL (≈ 1.09 µM)	–
CCCCc1ccc(-c2ccc(C(=O)N[C@@H](CCCCN)C(=O)N(C)[C@@H]3C(=O)N[C@@H](C)C(=O)N[C@H](C(=O)N[C@@H](C)B4O[C@@H]5C[C@@H]6C[C@@H](C6(C)C)[C@]5(C)O4)Cc4ccc(OCCN)c(c4)-c4cc3ccc4OCCN)cc2)cc1 [Compound 316]	0.031 µg/mL (≈ 0.029 µM)	–	0.13 µg/mL (≈ 0.122 µM)	0.094 µg/mL (≈ 0.0879 µM)	–
CCCCc1ccc(-c2ccc(C(=O)N[C@@H](CN)C(=O)N(C)[C@@H]3C(=O)N[C@@H](C)C(=O)N[C@H](C(=O)N[C@@H](C)B4O[C@@H]5C[C@@H]6C[C@@H](C6(C)C)[C@]5(C)O4)Cc4ccc(OCCN)c(c4)-c4cc3ccc4OCCN)cc2)cc1 [Compound 317]	0.063 µg/mL (≈ 0.0613 µM)	–	0.13 µg/mL (≈ 0.127 µM)	0.13 µg/mL (≈ 0.127 µM)	–
CCCCCCCCc1ccc(C(=O)N[C@@H](CCCN)C(=O)N(C)[C@@H]2C(=O)N[C@@H](C)C(=O)N[C@H](C(=O)N[C@@H](C)B3O[C@@H]4C[C@@H]5C[C@@H](C5(C)C)[C@]4(C)O3)Cc3ccc(OC)c(c3)-c3cc2ccc3OC)cc1 [Compound 319]	1 µg/mL (≈ 1.02 µM)	–	2 µg/mL (≈ 2.05 µM)	0.75 µg/mL (≈ 0.768 µM)	–
CCCCCCCCc1ccc(C(=O)N(C)[C@@H]2C(=O)N[C@@H](C)C(=O)N[C@H](C(=O)NCB3O[C@@H]4C[C@@H]5C[C@@H](C5(C)C)[C@]4(C)O3)Cc3ccc(OCCN)c(c3)-c3cc2ccc3OCCN)cc1 [Compound 320]	2 µg/mL (≈ 2.21 µM)	–	6 µg/mL (≈ 6.62 µM)	4 µg/mL (≈ 4.41 µM)	–
CCCCCCCCc1ccc(C(=O)N[C@@H](CCCN)C(=O)N(C)[C@@H]2C(=O)N[C@@H](C)C(=O)N[C@H](C(=O)N[C@@H](C)B3O[C@@H]4C[C@@H]5C[C@@H](C5(C)C)[C@]4(C)O3)Cc3ccc(OCCN)c(c3)-c3cc2ccc3OCCN)c(C)c1 [Compound 321]	0.063 µg/mL (≈ 0.06 µM)	–	0.094 µg/mL (≈ 0.0896 µM)	0.063 µg/mL (≈ 0.06 µM)	–
CCCCCCCCc1ccc(C(=O)N[C@@H](CCCN)C(=O)N(C)[C@@H]2C(=O)N[C@@H](C)C(=O)N[C@H](C(=O)N[C@@H](C)B(O)O)Cc3ccc(OCCN)c(c3)-c3cc2ccc3OCCN)c(F)c1 [Compound 322]	–	–	–	0.13 µg/mL (≈ 0.141 µM)	MIC (MRSA COL (NRS100); [5]): 0.063 µg/mL (≈ 0.0686 µM); MIC [2, 5]: 0.13 µg/mL (≈ 0.141 µM)
CCCCCCCCc1ccc(C(=O)N[C@@H](CCCN)C(=O)N(C)[C@@H]2C(=O)N[C@@H](C)C(=O)N[C@H](C(=O)N[C@@H](C)B3O[C@@H]4C[C@@H]5C[C@@H](C5(C)C)[C@]4(C)O3)Cc3ccc(OCCCN)c(c3)-c3cc2ccc3OCCCN)cc1 [Compound 323]	0.031 µg/mL (≈ 0.0292 µM)	0.063 µg/mL (≈ 0.0593 µM)	0.13 µg/mL (≈ 0.122 µM)	–	–
CCCCCCCCc1ccc(C(=O)N[C@@H](CCCN)C(=O)N(C)[C@@H]2C(=O)N[C@@H](C)C(=O)N[C@H](C(=O)NCB3O[C@@H]4C[C@@H]5C[C@@H](C5(C)C)[C@]4(C)O3)Cc3ccc(OCCN)c(c3)-c3cc2ccc3OCCN)cc1 [Compound 324]	0.13 µg/mL (≈ 0.127 µM)	0.13 µg/mL (≈ 0.127 µM)	0.25 µg/mL (≈ 0.245 µM)	–	–
CCCCCCCCCCCCCC(=O)N[C@@H](CCN)C(=O)N(C)[C@@H]1C(=O)N[C@@H](C)C(=O)N[C@H](C(=O)N[C@@H](C)B2O[C@@H]3C[C@@H]4C[C@@H](C4(C)C)[C@]3(C)O2)Cc2ccc(OCCN)c(c2)-c2cc1ccc2OCCN [Compound 325]	0.023 µg/mL (≈ 0.0227 µM)	0.13 µg/mL (≈ 0.128 µM)	0.13 µg/mL (≈ 0.128 µM)	–	–
CCCCCCCCc1ccc(C(=O)N[C@@H](CCCN)C(=O)N(C)[C@@H]2C(=O)N[C@@H](C)C(=O)N[C@H](C(=O)NCB(O)O)Cc3ccc(OCCN)c(c3)-c3cc2ccc3OCCN)cc1 [Compound 326]	–	0.19 µg/mL (≈ 0.214 µM)	–	–	MIC (MRSA COL (NRS100); [6]): 0.13 µg/mL (≈ 0.147 µM); MIC [2, 6]: 0.25 µg/mL (≈ 0.282 µM)
CCCCc1ccc(-c2ccc(C(=O)N[C@@H](CCCN)C(=O)N(C)[C@@H]3C(=O)N[C@@H](C)C(=O)N[C@H](C(=O)NC/C=C/S(C)(=O)=O)Cc4ccc(OCCN)c(c4)-c4cc3ccc4OCCN)cc2)cc1 [Compound 327]	–	0.5 µg/mL (≈ 0.517 µM)	–	–	MIC (MRSA COL (NRS100); [6]): 0.13 µg/mL (≈ 0.134 µM); MIC [2, 6]: 0.5 µg/mL (≈ 0.517 µM)
